Assay results from patent US9303012B2, “Pyridine-2-amides useful as CB2 agonists” (Hoffmann-La Roche Inc., priority 2012, dated 2016).

Tests used:
human CB1 receptors = human CB1 receptors (Homo sapiens (Human), UniProt P21554); test: functional cAMP assay, CHO cells expressing human CB1 receptors; format: cell-based
Summary of the method: (§1)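 Agonist EC50 values came from cAMP levels in CHO cells carrying human CB1 or CB2, after 30 min of compound treatment at 30 °C in the presence of 1 mM IBMX. Detection used a time-resolved FRET cAMP kit read against a cAMP standard curve.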

human CB2 receptors = human CB2 receptors (Homo sapiens (Human), UniProt P34972); test: functional cAMP assay, CHO cells expressing human CB2 receptors; format: cell-based
Summary of the method: as §1

human CB1 receptors, sequence (P21554 whole entry): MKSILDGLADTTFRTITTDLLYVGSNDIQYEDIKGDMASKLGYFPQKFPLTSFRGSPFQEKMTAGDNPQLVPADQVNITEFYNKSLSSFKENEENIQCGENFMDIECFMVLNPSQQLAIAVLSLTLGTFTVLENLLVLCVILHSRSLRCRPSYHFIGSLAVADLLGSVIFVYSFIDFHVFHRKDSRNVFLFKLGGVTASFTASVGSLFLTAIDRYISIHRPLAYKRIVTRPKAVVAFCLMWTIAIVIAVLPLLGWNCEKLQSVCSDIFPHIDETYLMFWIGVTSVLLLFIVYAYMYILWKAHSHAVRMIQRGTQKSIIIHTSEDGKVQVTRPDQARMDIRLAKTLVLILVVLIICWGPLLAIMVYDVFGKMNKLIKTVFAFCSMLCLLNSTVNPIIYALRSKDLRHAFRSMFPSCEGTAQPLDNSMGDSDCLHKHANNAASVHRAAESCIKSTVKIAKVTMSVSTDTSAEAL
human CB2 receptors, sequence (P34972 whole entry): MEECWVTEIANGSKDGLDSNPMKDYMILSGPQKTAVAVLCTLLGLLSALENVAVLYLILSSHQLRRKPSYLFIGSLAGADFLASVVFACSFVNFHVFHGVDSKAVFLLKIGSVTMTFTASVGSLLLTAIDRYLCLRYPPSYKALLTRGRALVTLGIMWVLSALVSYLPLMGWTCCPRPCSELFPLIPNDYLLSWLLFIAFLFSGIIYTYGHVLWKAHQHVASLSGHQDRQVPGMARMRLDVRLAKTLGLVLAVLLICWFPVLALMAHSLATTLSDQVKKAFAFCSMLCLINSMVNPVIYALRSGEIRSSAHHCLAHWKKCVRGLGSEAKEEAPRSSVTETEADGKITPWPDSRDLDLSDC

| Structure (SMILES) | EC50 (human CB1 receptors) [µM] | EC50 (human CB2 receptors) [µM] |
| --- | --- | --- |
| NC(=O)C1CCCN1C(=O)c1ccc(N2CC(F)(F)C2)c(OCC2CC2)n1 (stereo not drawn) [Example 114, 1-[6-Cyclopropylmethoxy-5-(3,3-difluoro-azetidin-1-yl)-pyridine-2-carbonyl]-pyrrolidine-2-carboxylic acid amide] | > 10 | 0.473 |
| NC(=O)[C@@H]1CC(F)(F)CN1C(=O)c1ccc(C2CC2)c(OCC2CCCO2)n1 (stereo partly drawn) [Example 75, (S)-1-{5-Cyclopropyl-6-[(R,S)-1-(tetrahydro-furan-2-yl)methoxy]-pyridine-2-arbonyl}-4,4-difluoro-pyrrolidine-2-carboxylic acid amide] | > 10 | 0.0162 |
| O=C(c1ccc(N2CC(F)(F)C2)c(OCC2CC2)n1)N1C[C@@H]2C[C@H]1CO2 [Example 65, [6-Cyclopropylmethoxy-5-(3,3-difluoro-azetidin-1-yl)-pyridin-2-yl]-(1S,4S)-2-oxa-5-aza-bicyclo[2.2.1]hept-5-yl-methanone] | > 10 | 0.1 |
| CN(C(=O)c1ccc(C2CC2)c(OCC2CCCO2)n1)C(C)(C)C (stereo not drawn) [Example 4, 5-Cyclopropyl-6-(tetrahydro-furan-2-ylmethoxy)-pyridine-2-carboxylic acid tert-butyl-methyl-amide] | > 10 | 0.0085 |
| O=C(c1ccc(N2CC(F)(F)C2)c(OCC2CC2)n1)N1CC2(CCCO2)C1 [Example 99, [6-Cyclopropylmethoxy-5-(3,3-difluoro-azetidin-1-yl)-pyridin-2-yl]-(5-oxa-2-aza-spiro[3.4]oct-2-yl)-methanone] | > 10 | 0.305 |
| NC(=O)[C@@H]1C[C@H](F)CN1C(=O)c1ccc(C2CC2)c(OCC2CC2)n1 [Example 69, (2S,4S)-1-(5-Cyclopropyl-6-cyclopropylmethoxy-pyridine-2-carbonyl)-4-fluoro-pyrrolidine-2-carboxylic acid amide] | > 10 | 1.04 |
| CC1(C)C[C@H](C(N)=O)N(C(=O)c2ccc(N3CC(F)(F)C3)c(OCC3CC3)n2)C1 [Example 77, (+)-1-[6-Cyclopropylmethoxy-5-(3,3-difluoro-azetidin-1-yl)-pyridine-2-carbonyl]-4,4-dimethyl-pyrrolidine-2-carboxylic acid amide] | > 10 | 0.194 |
| CC1(C)COCN1C(=O)c1ccc(OCC2CC2)c(Cl)n1 [Example 49, (6-Chloro-5-cyclopropylmethoxy-pyridin-2-yl)-(4,4-dimethyl-oxazolidin-3-yl)-methanone] | > 10 | 0.139 |
| CC1(C)COCN1C(=O)c1ccc(N2CC(F)(F)C2)c(OCC2CC2)n1 [Example 14, [6-Cyclopropylmethoxy-5-(3,3-difluoro-azetidin-1-yl)-pyridin-2-yl]-(4,4-dimethyl-oxazolidin-3-yl)-methanone] | > 10 | 0.0073 |
| CC(C)CS(=O)(=O)c1nc(C(=O)N(C)C(C)(C)C)ccc1C1CC1 [Example 6, 5-Cyclopropyl-6-(2-methyl-propane-1-sulfonyl)-pyridine-2-carboxylic acid tert-butyl-methyl-amide] | > 10 | 0.106 |
| CN(C=O)C(=O)c1ccc(N2CC(F)(F)C2)c(OCC2CC2)n1 [Example 51, 6-(Cyclopropylmethoxy)-5-(3,3-difluoroazetidin-1-yl)-N-formyl-N-methylpyridine-2-carboxamide] | > 10 | 0.789 |
| O=C(c1ccc(N2CC(F)(F)C2)c(OCC2CC2)n1)N1C[C@H]2COC[C@H]2C1 [Example 146, [(3aR,6aS)-1,3,3a,4,6,6a-Hexahydrofuro[3,4-c]pyrrol-5-yl]-[6-(cyclopropylmethoxy)-5-(3,3-difluoroazetidin-1-yl)pyridin-2-yl]methanone] | > 10 | 0.167 |
| NC(=O)C1C[S+]([O-])CN1C(=O)c1ccc(N2CC(F)(F)C2)c(OCC2CC2)n1 (stereo not drawn) [Example 124, 3-[6-(Cyclopropylmethoxy)-5-(3,3-difluoroazetidin-1-yl)pyridine-2-carbonyl]-1-oxo-1,3-thiazolidine-4-carboxamide] | > 10 | 0.0526 |
| COCCN(C(=O)c1ccc(N2CC(F)(F)C2)c(OCC2CC2)n1)C(C)(C)CO [Example 19, 6-Cyclopropylmethoxy-5-(3,3-difluoro-azetidin-1-yl)-pyridine-2-carboxylic acid (2-hydroxy-1,1-dimethyl-ethyl)-(2-methoxy-ethyl)-amide] | > 10 | 0.856 |
| NC(=O)[C@@H]1CS(=O)(=O)CN1C(=O)c1ccc(C2CC2)c(OCC2CC2)n1 [Example 115, (−)-3-(5-Cyclopropyl-6-cyclopropylmethoxy-pyridine-2-carbonyl)-1,1-dioxo-1λ^6-thiazolidine-4-carboxylic acid amide] | > 10 | 0.0072 |
| Cc1nc(C(C2CC2)N(C)C(=O)c2ccc(C3CC3)c(OCC3CCOCC3)n2)no1 (stereo not drawn) [Example 33, 5-Cyclopropyl-6-(tetrahydro-pyran-4-ylmethoxy)-pyridine-2-carboxylic acid [cyclopropyl-(5-methyl-[1,2,4]oxadiazol-3-yl)-methyl]-methyl-amide] | > 10 | 0.0554 |
| O=C(c1ccc(N2CC(F)(F)C2)c(OCC2CC2)n1)N1CC(F)(F)C(F)(F)C1 [Example 118, [6-Cyclopropylmethoxy-5-(3,3-difluoro-azetidin-1-yl)-pyridin-2-yl]-(3,3,4,4-tetrafluoro-pyrrolidin-1-yl)-methanone] | > 10 | 0.0132 |
| CN(C(=O)c1ccc(N2CC(F)(F)C2)c(OCC2CC2)n1)C(C)(C)COC(=O)c1ccc(N2CC(F)(F)C2)c(OCC2CC2)n1 [Example 12, 6-Cyclopropylmethoxy-5-(3,3-difluoro-azetidin-1-yl)-pyridine-2-carboxylic acid 2-{[6-cyclopropylmethoxy-5-(3,3-difluoro-azetidin-1-yl)-pyridine-2-carbonyl]-methyl-amino}-2-methyl-propyl ester] | > 10 | 0.134 |
| CC1(C)C[C@H](C(N)=O)N(C(=O)c2ccc(C3CC3)c(OCC3CC3)n2)C1 [Example 94, (+)-1-(5-Cyclopropyl-6-cyclopropylmethoxy-pyridine-2-carbonyl)-4,4-dimethyl-pyrrolidine-2-carboxylic acid amide] | > 10 | 0.0802 |
| O=C(OCc1ccccc1)N1CCN(C(=O)c2ccc(N3CC(F)(F)C3)c(OCC3CC3)n2)CC1 [Example 109, 4-[6-Cyclopropylmethoxy-5-(3,3-difluoro-azetidin-1-yl)-pyridine-2-carbonyl]-piperazine-1-carboxylic acid benzyl ester] | > 10 | 0.36 |
| CCOC(=O)C1C2CN(C(=O)c3ccc(N4CC(F)(F)C4)c(OCC4CC4)n3)CC21 (stereo not drawn) [Example 107, 3-[6-Cyclopropylmethoxy-5-(3,3-difluoro-azetidin-1-yl)-pyridine-2-carbonyl]-3-aza-bicyclo[3.1.0]hexane-6-carboxylic acid ethyl ester] | > 10 | 0.757 |
| O=C(c1ccc(N2CC(F)(F)C2)c(OCC2CC2)n1)N1CC(F)(C2CC2)C1 [Example 150, (3-Cyclopropyl-3-fluoroazetidin-1-yl)-[6-(cyclopropylmethoxy)-5-(3,3-difluoroazetidin-1-yl)pyridin-2-yl]methanone] | > 10 | 0.008 |
| NC(=O)[C@@H]1CSCN1C(=O)c1ccc(C2CC2)c(OCC2CC2)n1 [Example 97, (−)-3-(5-Cyclopropyl-6-cyclopropylmethoxy-pyridine-2-carbonyl)-thiazolidine-4-carboxylic acid amide] | > 10 | 0.0723 |
| NC(=O)[C@@H]1C[C@@H](F)CN1C(=O)c1ccc(C2CC2)c(OCC2CC2)n1 [Example 123, (2S,4R)-1-[5-Cyclopropyl-6-(cyclopropylmethoxy)pyridine-2-carbonyl]-4-fluoropyrrolidine-2-carboxamide] | > 10 | 0.0584 |
| CCOC(=O)CN(C(=O)c1ccc(N2CC(F)(F)C2)c(OCC2CC2)n1)C(C)(C)C [Example 23, {tert-Butyl-[6-cyclopropylmethoxy-5-(3,3-difluoro-azetidin-1-yl)-pyridine-2-carbonyl]-amino}-acetic acid ethyl ester] | > 10 | 0.0058 |
| COC1CN(c2ccc(C(=O)N3CS(=O)(=O)CC3C(N)=O)nc2OCC2CC2)C1 (stereo not drawn) [Example 128, 3-[6-(Cyclopropylmethoxy)-5-(3-methoxyazetidin-1-yl)pyridine-2-carbonyl]-1,1-dioxo-1,3-thiazolidine-4-carboxamide] | > 10 | 0.0302 |
| CN1C(=O)CN(C(=O)c2ccc(N3CC(F)(F)C3)c(OCC3CC3)n2)[C@@H]1C(C)(C)C [Example 56, (R)-2-tert-Butyl-1-[6-cyclopropylmethoxy-5-(3,3-difluoro-azetidin-1-yl)-pyridine-2-carbonyl]-3-methyl-imidazolidin-4-one] | > 10 | 0.0369 |
| O=C(c1ccc(N2CC(F)(F)C2)c(OCC2CC2)n1)N1CC(O)(C(F)(F)F)C1 [Example 139, [6-(Cyclopropylmethoxy)-5-(3,3-difluoroazetidin-1-yl)pyridin-2-yl]-[3-hydroxy-3-(trifluoromethyl)azetidin-1-yl]methanone] | > 10 | 0.042 |
| CC(C)C[C@H](c1cccnn1)N(C)C(=O)c1ccc(N2CC(F)(F)C2)c(OCC2CC2)n1 [Example 34, (+)-6-Cyclopropylmethoxy-5-(3,3-difluoro-azetidin-1-yl)-pyridine-2-carboxylic acid methyl-(3-methyl-1-pyridazin-3-yl-butyl)-amide] | > 10 | 0.0911 |
| CC(C)(C)OC(=O)N1CCC2(CCCN2C(=O)c2ccc(C3CC3)c(Cc3ccc(F)cc3)n2)CC1 [Example 111, 1-[5-Cyclopropyl-6-(4-fluoro-benzyl)-pyridine-2-carbonyl]-1,8-diaza-spiro[4.5]decane-8-carboxylic acid tert-butyl ester] | 2.78 | 0.008 |
